Results from patent US9221816B2, “2-oxo-2,3-dihydro-indoles for the treatment of CNS disorders” (Hoffmann-La Roche Inc., priority 2012, dated 2015).
“Also recorded” adds a separate entry of the source.

Columns and labels:
[1] = tested on: behaviors of compound-treated mice; experiment: SmartCube behavioral signature, similarity to atypical antipsychotics; format: in vivo; conditions: for discrimination rate vs Clozapine / discrimination rate vs Olanzapine / discrimination rate vs Risperidone: SmartCube, i.p. 15 minutes before test, 0.70 or lower = similar; for SmartCube signature: i.p., mice, classification by similarity to drug classes
From the text: In addition to the reversal of L-687,414 induced hyperlocomotion experiment as described above, some compounds of the present invention have been tested in SmartCube®, an automated system in which the behaviors of compound-treated mice in response to multiple challenges are captured by digital video and analyzed with computer algorithms (Roberds et al., Frontiers in Neuroscience, 2011, Vol. 5, Art. 103, 1-4). In this way, the neuro-pharmacological effects of a test compound can be predicted by similarity to major classes of compounds, such as antipsychotics, anxiolytics and antidepressants.
SmartCube® was used to compare the behavioral signature of a test compound to a database of behavioral signatures obtained from a large set of clinically approved reference drugs, grouped per indications. In this way, the neuro-pharmacological effects of a test compound can be predicted by similarity to major classes of compounds, such as antipsychotics, anxiolytics and antidepressants. This approach is ideally suited to screen collections of existing drugs or drug candidates with previously unknown neuropharmacology, which could expedite the development of new and unexpected treatments for psychiatric disorders.
Some compounds of the present invention were injected i.p. at different doses 15 minutes before the test. At least 8 mice were used in each treatment group. Digital videos of the subjects were processed with computer vision algorithms to extract over 2000 dependent measures including frequency and duration of many different behavioral states. The results of the classifications are presented as bar charts for each dose (mg/kg), the Y-axis indicates the relative probability that the test compound will show efficacy in the specific CNS indication.
For comparison, the behavioral signature of the atypical antipsychotic risperidone is shown in FIG. 3 (for behavioral signatures of further atypical antipsychotic, e.g. clozapine, olanzapine, see also Roberds et al., Frontiers in Neuroscience, 2011, Vol. 5, Art. 103, 1-4). Compounds of the present invention show similar signatures to those of atypical antipsychotics. An independent analysis was performed on the unclassified data to determine the similarity of the example compounds to active doses of known atypical antipsychotics. For this analysis, we use discrimination rate as the measure of separability between the two drugs, i.e. one drug's “distinguishability” from another. A rate equal to 50% (or 0.5) corresponds to zero distinguishability. […] In most cases, the example compounds show a similarity to risperidone, clozapine and olanzapine with a discrimination rate of ≦0.70.

[2] = tested on: L-687,414-induced hyperlocomotion; experiment: L-687,414-induced hyperlocomotion (Digiscan locomotor activity); format: in vivo, mouse; conditions: mice; for ID50 po: p.o. 15 min before s.c. 50 mg/kg L-687,414, dose producing 50% inhibition of hyperlocomotion; for Inhibition, ip: dose ip 30, at the same time as s.c. 50 mg/kg L-687,414, % inhibition of horizontal activity
Description: The authors described that hyperlocomotion induced by L-687,414 was inhibited by a series of known antipsychotic drugs. […] These findings predict antipsychotic activity for the present compounds, making them useful for the treatment of schizophrenia and other disorders as described above.
The described compounds of formula I and I-1 reduce L-687,414-induced hyperlocomotion. This was assessed by using a computerized Digiscan 16 Animal Activity Monitoring System (Omnitech Electronics, Columbus, Ohio) to quantify locomotor activity. Animals were kept under a 12 h light/dark cycle and experiments were performed during the light period. Each activity monitoring chamber consisted of a Plexiglas box (41×41×28 cm; W×L×H) with sawdust bedding on the floor surrounded by invisible horizontal and vertical infrared sensor beams. The test boxes were divided by a Plexiglas cross providing each mouse with 20×20 cm of moving space. Cages were connected to a Digiscan Analyzer linked to a computer that constantly collected the beam status information. Records of photocell beam interruptions for individual animals were taken every 5 min over the duration of the experimental session and the sum of the first 6 periods was used as the final parameter. Compounds were administered either p.o. 15 min before a s.c. injection of 50 mg/kg of L-687,414, or i.p. at the same time as a s.c. injection of 50 mg/kg of L-687,414. Mice were then transferred from their home cage to the recording chambers for a 15-min habituation phase allowing free exploration of the new environment. Horizontal activity was then recorded for a 30-min time period. The % inhibition of L-687,414-induced hyperlocomotion was calculated according to the equation: ((Veh+L-687,414 horizontal activity−drug+L-687,414 horizontal activity)/Veh+L-687,414 horizontal activity)×100
ID50 values, defined as doses of each compound producing 50% inhibition of L-687,414-induced hyperlocomotion, were calculated by linear regression analysis of a dose-response data using an Excel-based computer-fitting program.
As data was not presupposed to be normally distributed, groups treated with test compounds were statistically compared with the control (vehicle-treated) group using one-tailed Mann Whitney U tests. In statistics, the Mann-Whitney U test (also called the Mann-Whitney-Wilcoxon (MWW) or Wilcoxon rank-sum test) is a non-parametric statistical hypothesis test for assessing whether one of two samples of independent observations tends to have larger values than the other. It is one of the most well-known non-parametric significance tests. […] P values given in table 1 are one-tailed since only decreases in locomotion were expected and tested for (Mann, H. B., Whitney, D. R. (1947), “On a Test of Whether one of Two Random Variables is Stochastically Larger than the Other”, Annals of Mathematical Statistics, 18 (1), 50-60).

With `CN1C(=O)C(C)(C)c2ccc(NC(=O)c3ccncc3F)cc21` [Example 29, 3-Fluoro-N-(1,3,3-trimethyl-2-oxoindolin-6-yl)isonicotinamide] the “discrimination rate vs Clozapine” value [1] was 0.63, the “discrimination rate vs Olanzapine” value [1] was 0.58 and the “discrimination rate vs Risperidone” value [1] was 0.56. For the same molecule, the SmartCube signature [1] was “similarity to atypical antipsychotics; also recorded: profile similar to that of atypical antipsychotics” and the ID50 po [2] was 1.08 mg/kg.

`CC1(C)C(=O)N(C2CC2)c2cc(NC(=O)c3ccncc3Cl)ccc21` [Example 30, 3-Chloro-N-(1-cyclopropyl-3,3-dimethyl-2-oxoindolin-6-yl)isonicotinamide] was tested, and the “discrimination rate vs Clozapine” value [1] was 0.68, the “discrimination rate vs Olanzapine” value [1] was 0.67 and the “discrimination rate vs Risperidone” value [1] was 0.72. For the same molecule, the SmartCube signature [1] was “similarity to atypical antipsychotics; also recorded: profile similar to that of atypical antipsychotics” and the ID50 po [2] was 0.97 mg/kg.

In the case of `Cc1cc(C(=O)Nc2ccc3c(c2)N(C2CC2)C(=O)C32CC2)ccn1` [Example 60, N-(1′-Cyclopropyl-2′-oxospiro[cyclopropane-1,3′-indoline]-6′-yl)-2-methylisonicotinamide], the “Inhibition, ip” value [2] is reported as 63.2%.

For `CC1(C)C(=O)N(C2COC2)c2cc(NC(=O)c3ccncc3Cl)ccc21` [Example 62, 3-Chloro-N-(3,3-dimethyl-1-(oxetan-3-yl)-2-oxoindolin-6-yl)isonicotinamide], the “Inhibition, ip” value [2] was 61.7%.

`CC1(C)C(=O)N(C2COC2)c2cc(NC(=O)c3cccnc3)ccc21` [Example 64, N-(3,3-Dimethyl-1-(oxetan-3-yl)-2-oxoindolin-6-yl)nicotinamide] was tested, and the “Inhibition, ip” value [2] was 65.9%.

For `CC1(C)C(=O)N(CCCOC2CC2)c2cc(NC(=O)c3ccncc3F)ccc21` [Example 65, N-(1-(3-Cyclopropoxypropyl)-3,3-dimethyl-2-oxoindolin-6-yl)-3-fluoroisonicotinamide], the “Inhibition, ip” value [2] was 91.1%.

`CC1(C)C(=O)N(CCO)c2cc(NC(=O)c3ccncc3F)ccc21` [Example 68, 3-Fluoro-N-(1-(2-hydroxyethyl)-3,3-dimethyl-2-oxoindolin-6-yl)isonicotinamide] was tested, and the “Inhibition, ip” value [2] was 89.1%.

With `CC1(C)C(=O)N(CCCO)c2cc(NC(=O)c3ccncc3F)ccc21` [Example 69, 3-Fluoro-N-(1-(3-hydroxypropyl)-3,3-dimethyl-2-oxoindolin-6-yl)isonicotinamide] the “Inhibition, ip” value [2] was 82.4%.

`CC1(C)C(=O)Nc2cc(NC(=O)c3ccncc3F)ccc21` [Example 72, N-(3,3-Dimethyl-2-oxoindolin-6-yl)-3-fluoroisonicotinamide] showed an ID50 po [2] of 2.22 mg/kg.

For `CC1(C)C(=O)N(CCCO)c2cc(NC(=O)c3ccncc3Cl)ccc21` [Example 73, 3-Chloro-N-(1-(3-hydroxypropyl)-3,3-dimethyl-2-oxoindolin-6-yl)isonicotinamide], the “Inhibition, ip” value [2] was 51.2%.

With `CC1(C)C(=O)N(CC(F)(F)F)c2cc(NC(=O)c3ccncc3F)ccc21` [Example 74, N-(3,3-Dimethyl-2-oxo-1-(2,2,2-trifluoroethyl)indolin-6-yl)-3-fluoroisonicotinamide] the “Inhibition, ip” value [2] was 76.6%.

Work on `CC1(C)C(=O)N(C2CC2)c2cc(NC(=O)c3ccncc3)ncc21` [Example 79, N-(1-Cyclopropyl-3,3-dimethyl-2-oxo-2,3-dihydro-1H-pyrrolo[3,2-c]pyridin-6-yl)isonicotinamide] yielded an ID50 po [2] of 0.94 mg/kg.

`Cc1cc(C(=O)Nc2cc3c(cn2)C(C)(C)C(=O)N3C2CC2)ccn1` [Example 81, N-(1-Cyclopropyl-3,3-dimethyl-2-oxo-2,3-dihydro-1H-pyrrolo[3,2-c]pyridin-6-yl)-2-methylisonicotinamide] was tested, and the “Inhibition, ip” value [2] was 53.1%.

`CC1(C)C(=O)N(C2CC2)c2cc(NC(=O)c3ccnc(Cl)c3)ncc21` [Example 83, 2-Chloro-N-(1-cyclopropyl-3,3-dimethyl-2-oxo-2,3-dihydro-1H-pyrrolo[3,2-c]pyridin-6-yl)isonicotinamide] was tested, and the “Inhibition, ip” value [2] was 79.6%.

In the case of `CC1(C)C(=O)N(C2CC2)c2cc(NC(=O)c3ccno3)ncc21` [Example 85, N-(1-Cyclopropyl-3,3-dimethyl-2-oxo-2,3-dihydro-1H-pyrrolo[3,2-c]pyridin-6-yl)isoxazole-5-carboxamide], the “Inhibition, ip” value [2] is reported as 74.9%.

`Cn1nccc1C(=O)Nc1cc2c(cn1)C(C)(C)C(=O)N2C1CC1` [Example 86, N-(1-Cyclopropyl-3,3-dimethyl-2-oxo-2,3-dihydro-1H-pyrrolo[3,2-c]pyridin-6-yl)-1-methyl-1H-pyrazole-5-carboxamide] was tested, and the “Inhibition, ip” value [2] was 69%.

For `COc1ncc(C(=O)Nc2cc3c(cn2)C(C)(C)C(=O)N3C2CC2)cn1` [Example 88, N-(1-Cyclopropyl-3,3-dimethyl-2-oxo-2,3-dihydro-1H-pyrrolo[3,2-c]pyridin-6-yl)-2-methoxypyrimidine-5-carboxamide], the ID50 po [2] was 6.11 mg/kg.
